# Results reported in US20120183619A1, “TRICLOSAN DERIVATIVES AND NANOPARTICLES COMPRISING SAME” (BAR ILAN UNIVERSITY, priority 2011, published 2012).
# Tests used:
# [1] = tested on: Staphylococcus Aureus (S. aureus) (Gram-positive); assay: Killing curves / antimicrobial activity on S. aureus; format: cell-based
# Description: (§1) In order to investigate the antimicrobial activity of the nanoparticles, a series of biological experiments were designed and carried out on two common bacterial pathogens, Escherichia Coli (E. coli) (Gram-negative) and Staphylococcus Aureus (S. aureus) (Gram-positive). Killing curves were determined in triplicate using starting inocula of 10^6 CFU mL^−1. Fresh, overnight growths of bacteria in TSB or TSB-Glu were diluted as necessary to produce the desired starting inocula in 10 mL of medium. T-SNPs and triclosan were tested in concentration ranges from 0 to 50 μg mL^−1 and 0 to 1 μg mL^−1, respectively. Unloaded SNPs were added at the highest tested concentration (50 μg mL^−1). TTESPC was previously dissolved in dimethyl sulfoxide (DMSO) and added to the media at a concentration of 50 μg mL^−1. Samples (100 μL) were removed from each well every 2 h and diluted appropriately in saline. Colony-forming units were determined by spotting 5 μL samples in triplicate on Luria-Bertani agar plates after 24 h incubation at 37° C. To confirm that the antimicrobial properties of the T-SNPs were mediated by the sole release of triclosan, the triclosan-resistant strain of E. coli, RJH108, was exposed to the highest concentration of T-SNPs tested (50 μg mL^−1). The viability was determined by using the same experimental protocol as described above.
# (§2) Despite the similar MICs, a difference in the sensitivity of these strains to the T-SNPs treatment was observed. […] Then, the nanoparticles were centrifuged, filtered and the supernatant was incubated separately with E. coli and S. aureus and their growth was monitored. […]
# (§3) The MIC of free triclosan that affected the growth of the two types of bacteria was measured (FIGS. 11A-B). […] As calculated from the elemental analysis, the triclosan constituted only […] of the nanoparticles, meaning that the highest concentration of nanoparticles taken for the experiments, 50 μg mL^−1, encompassed only 0.041 μg mL^1 of covalently bound triclosan. […]
# [2] = tested on: Escherichia Coli (E. coli) (Gram-negative); assay: Killing curves / antimicrobial activity on E. coli; format: cell-based
# Description: as §1, §2, §3
# [3] = cited from earlier work
compound,measurement,setting,value
"CCO[Si](CCCNC(=O)Oc1cc(Cl)ccc1Oc1ccc(Cl)cc1Cl)(OCC)OCC [TTESPC, 5-chloro-2-(2,4-dichlorophenoxy)phenyl (3-(triethoxysilyl)propyl)carbamate]",antibacterial activity (control),"[1]; S. aureus, 50 μg mL^−1, dissolved in DMSO",no antibacterial activity was observed
same,antibacterial activity (control),"[2]; E. coli, 50 μg mL^−1, dissolved in DMSO",no antibacterial activity was observed
"Oc1cc(Cl)ccc1Oc1ccc(Cl)cc1Cl [triclosan, 5-chloro-2-(2,4-dichlorophenoxy)phenol]",chemical stability (time),[3]; at up to 200° C.,up to 2 h
same,solubility in aqueous solution,[3]; unless the pH is alkaline,fairly insoluble
same,effect on bacterial growth at equal triclosan concentration,"[1]; S. aureus, 0.041 μg mL^1 triclosan (50 μg mL^−1 nanoparticles)",only began to impede the bacterial growth
same,MBC,"[1]; Staphylococcus aureus, read-out: minimal bactericidal concentration (MIC)",0.1 µg/mL
same,effect on bacterial growth at equal triclosan concentration,"[2]; E. coli, 0.041 μg mL^1 triclosan (50 μg mL^−1 nanoparticles)",only began to impede the bacterial growth
same,MBC,"[2]; Escherichia coli, read-out: minimal bactericidal concentration (MIC)",0.1 µg/mL
